Experimental data reported in PubChem BioAssay (NCI).
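Grown in 96-well plates, cells were treated for 48 hours with each compound at five concentrations. Insufficient inhibition: endpoint recorded as highest concentration tested. At the GI50, growth is halved. TGI is the concentration that stops growth completely.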

Tests used:
Assay in all cases: NCI anticancer screen, dose series, 48 h
[1] = system: EKVX NSCLC
[2] = system: 786-0 renal
[3] = system: MDA-MB-435
[4] = system: HCT-15 colon
[5] = system: MOLT-4 leukemia
[6] = system: A549 NSCLC
[7] = system: OVCAR-8 ovarian
[8] = system: KM12 colon
[9] = system: SK-MEL-28 melanoma
[10] = system: NCI-H460 lung
[11] = system: HT29 colon
[12] = system: NCI/ADR-RES ovarian
[13] = system: A498 renal
[14] = system: OVCAR-3 ovarian
[15] = system: UACC-62 melanoma
[16] = system: RPMI-8226 leukemia
[17] = system: MDA-MB-231 breast
[18] = system: SF-295 CNS
[19] = system: NCI-H226 lung
[20] = system: NCI-H522 lung
[21] = system: SW-620 colon
[22] = system: U251 CNS
[23] = system: PC-3 prostate
[24] = system: HS 578T breast
[25] = system: SNB-19 CNS
[26] = system: MALME-3M melanoma
[27] = system: SK-MEL-5 melanoma
[28] = system: HCT-116 colon
[29] = system: NCI-H23 lung
[30] = system: UACC-257 melanoma
[31] = system: LOX IMVI melanoma
[32] = system: SR leukemia
[33] = system: OVCAR-5 ovarian
[34] = system: SN12C renal
[35] = system: DU-145 prostate
[36] = system: MCF7 breast
[37] = system: HOP-62 NSCLC
[38] = system: CAKI-1 renal
[39] = system: T-47D breast
[40] = system: IGROV1 ovarian
[41] = system: SK-OV-3 ovarian
[42] = system: COLO 205 colon
[43] = system: CCRF-CEM leukemia
[44] = system: OVCAR-4 ovarian
[45] = system: UO-31 renal
[46] = system: ACHN renal
[47] = system: RXF 393 renal
[48] = system: SNB-75 CNS
[49] = system: HCC-2998 colon
[50] = system: K-562 leukemia
[51] = system: BT-549 breast
[52] = system: HOP-92 NSCLC
[53] = system: SK-MEL-2 melanoma
[54] = system: SF-268 CNS
[55] = system: TK-10 renal
[56] = system: SF-539 CNS

`OCCCCC#Cc1ccccc1C#Cc1ccccn1` showed a GI50 [1] of 27.7 µM, a TGI [1] of 67 µM and a GI50 [2] of 38.3 µM. The TGI [2] was greater than 100 µM, the GI50 [3] was 25.1 µM and the TGI [3] was 79.4 µM. It also gave a GI50 [4] of 29.8 µM, a TGI [4] greater than 100 µM and a GI50 [5] of 21.4 µM. For the same compound, the TGI [5] was greater than 100 µM, the GI50 [6] was 33.6 µM and the TGI [6] was greater than 100 µM. For the same compound, the GI50 [7] was 32.4 µM, the TGI [7] was greater than 100 µM and the GI50 [8] was 29.7 µM. For the same compound, the TGI [8] was greater than 100 µM, the GI50 [9] was 31 µM and the TGI [9] was greater than 100 µM. For the same compound, the GI50 [10] was 24.8 µM, the TGI [10] was 76.4 µM and the GI50 [11] was 26.1 µM. For the same compound, the TGI [11] was greater than 100 µM, the GI50 [12] was 27.3 µM and the TGI [12] was 77.4 µM. The GI50 [13] was 8.99 µM, the TGI [13] was 49.7 µM and the GI50 [14] was 26.1 µM. It also gave a TGI [14] of 77.3 µM, a GI50 [15] of 23.1 µM and a TGI [15] greater than 100 µM. For the same compound, the GI50 [16] was 16.4 µM, the TGI [16] was 37.4 µM and the GI50 [17] was 21 µM. The TGI [17] was 64.9 µM, the GI50 [18] was 21.8 µM and the TGI [18] was 65.2 µM. The GI50 [19] was 31.3 µM, the TGI [19] was greater than 100 µM and the GI50 [20] was 22.2 µM. It also gave a TGI [20] of 56 µM, a GI50 [21] of 45.7 µM and a TGI [21] greater than 100 µM. It also gave a GI50 [22] of 31.2 µM, a TGI [22] greater than 100 µM and a GI50 [23] of 24.6 µM. For the same compound, the TGI [23] was 73.9 µM, the GI50 [24] was 25.6 µM and the TGI [24] was 88.3 µM. For the same compound, the GI50 [25] was 42.1 µM, the TGI [25] was greater than 100 µM and the GI50 [26] was 27.1 µM. The TGI [26] was greater than 100 µM, the GI50 [27] was 19.1 µM and the TGI [27] was 41.4 µM. The GI50 [28] was 30.8 µM, the TGI [28] was greater than 100 µM and the GI50 [29] was 25.2 µM. It also gave a TGI [29] greater than 100 µM, a GI50 [30] of 28.8 µM and a TGI [30] of 87.2 µM. It also gave a GI50 [31] of 27.7 µM, a TGI [31] greater than 100 µM and a GI50 [32] of 25.5 µM. The TGI [32] was 96.2 µM, the GI50 [33] was greater than 100 µM and the TGI [33] was greater than 100 µM. The GI50 [34] was 32.1 µM, the TGI [34] was greater than 100 µM and the GI50 [35] was 9.78 µM. For the same compound, the TGI [35] was 74.6 µM, the GI50 [36] was 37.8 µM and the TGI [36] was greater than 100 µM. For the same compound, the GI50 [37] was 29.4 µM, the TGI [37] was greater than 100 µM and the GI50 [38] was 28.6 µM. For the same compound, the TGI [38] was greater than 100 µM, the GI50 [39] was 15.9 µM and the TGI [39] was 80.6 µM. The GI50 [40] was 27.2 µM, the TGI [40] was greater than 100 µM and the GI50 [41] was greater than 100 µM. For the same compound, the TGI [41] was greater than 100 µM, the GI50 [42] was 31.1 µM and the TGI [42] was greater than 100 µM. The GI50 [43] was 31.4 µM, the TGI [43] was greater than 100 µM and the GI50 [44] was 30.3 µM. The TGI [44] was greater than 100 µM, the GI50 [45] was 32.3 µM and the TGI [45] was greater than 100 µM. The GI50 [46] was 31.8 µM, the TGI [46] was greater than 100 µM and the GI50 [47] was 25 µM. It also gave a TGI [47] of 62.3 µM, a GI50 [48] of 14.9 µM and a TGI [48] of 51.5 µM. The GI50 [49] was 26.4 µM, the TGI [49] was 72.9 µM and the GI50 [50] was 29 µM. For the same compound, the TGI [50] was greater than 100 µM, the GI50 [51] was 15.8 µM and the TGI [51] was 47.4 µM. For the same compound, the GI50 [52] was 26.6 µM, the TGI [52] was 94.6 µM and the GI50 [53] was 41.6 µM. For the same compound, the TGI [53] was greater than 100 µM, the GI50 [54] was 29.8 µM and the TGI [54] was greater than 100 µM. For the same compound, the GI50 [55] was 61 µM, the TGI [55] was greater than 100 µM and the GI50 [56] was 17.8 µM. It also gave a TGI [56] of 42.7 µM.
